{
  "source": "patent EP1223923B1",
  "about": "“UNSATURATED ARYL SULFONES FOR PROTECTING NORMAL CELLS FROM CYTOTOXICITY OF CHEMOTHERAPEUTIC AGENTS” (Temple University - Of The Commonwealth System of Higher …, priority 1999, dated 2001)",
  "format_in_all_cases": "cell-based",
  "key": {"Normal human HFL-1 cells": {"test_system": "Normal human HFL-1 cells", "test": "Cytoprotection assay against paclitaxel", "set-up": "key: +: A compound was deemed to be active if the number of viable cells following the combination treatment was higher than the number of cells after treatment with paclitaxel alone", "settings": "2.0 or 10 µM sulfone; paclitaxel (250 nM) at time zero or 24 hours later; viable cells after 96 hours of paclitaxel", "protocol": "The cytoprotective activity of the same styryl benzylsulfones was determined as follows. Normal human HFL-1 cells were plated at a cell density of 1.0 x 10^5 cells per well in six culture plates. Styryl benzylsulfone was added 24 hours later at a final concentration of either 2.0 or 10 µM. The time of styryl sulfone addition was designated as time zero. Paclitaxel (250 nM) was added at either time zero, or 24 hours after time zero. The total number of viable cells was determined, as described above, after 96 hours of paclitaxel treatment. A compound was deemed to be active if the number of viable cells following the combination treatment was higher than the number of cells after treatment with paclitaxel alone. Table 7: Antitumor and Cytoprotective Effect of Styryl Sulfones"}, "[1]": {"test": "Plating efficiency (colony-forming ability) of normal human fibroblasts", "settings": "hfl-1 cells, 24 hour incubation with drug, replated, colonies counted after 20 days, read-out: concentration of the drug causing 50% inhibition in plating efficiency", "protocol": "HFL-1 cells (normal, human diploid lung fibroblasts) purchased from ATCC were plated after first passage at low density (2.0 x 10^5cells) per well (6 well dishes) in one ml of growth medium (DMEM completed with 10% fetal bovine serum and pen/strep). Twenty-four hours later, (E)-4-fluorostyryl-4-chlorobenzylsulfone was added to each well at the following final concentrations; 0 µM, 2.5. µM, 5.0 µM, 25 µM, 50 µM, and 75 µM. After a 24 hour incubation period, the wells were washed 3x with 5 ml normal growth medium and each well was trypsinized and cell counts were determined. To determine colony-forming ability, the cells from each treatment were then serial diluted and replated into 100mm dishes such that each group was split into 3 replating groups consisting of 10, 100, 200 cells per plate. The groups were plated in triplicate. The cells were incubated for 20 days under normal growth conditions and colonies were counted after staining with modified Wright stain (Sigma). The number of colonies from each plate in triplicate were determined and the average for each group was plotted. The concentration of the drug causing 50% inhibition in plating efficiency was calculated and found to be 70 µM."}, "HFL-1 cells": {"test_system": "HFL-1 cells", "test": "Protection of normal human fibroblasts from anticancer agent cytotoxicity (protection ratio, Trypan blue exclusion)", "settings": "2.0 µM sulfone 24 hour preincubation, viable cells 96 hours after cytotoxic agent", "protocol": "HFL-1 cells were plated at a cell density of 1.0 x 10^5 in 1 ml of medium. Twenty-four hours following plating, 2.0 µM of (E)-4-fluorostyryl-4-chlorobenzylsulfone was added to the medium. Following a 24 hour preincubation with the styryl sulfone, the various cytotoxic agents listed in Table 6 were added to the cells, at the concentrations given in Table 6. the number of viable cells was determined by Trypan blue exclusion using a hematocytometer 96 hours after exposure to cytotoxic agent. The \"Protection Ratio\" is the number of viable cells following treatment with (E)-4-fluorostyryl-4-chlorobenzylsulfone and cytotoxic agent, divided by the number of viable cells remaining after treatment with cytotoxic agent alone. A protection ratio of 2 or more is considered highly significant, while is protection ratio of 1.5-2 is considered less significant. […] Table 6: Protective Effect of (E)-4-Fluorostyryl-4-Chlorobenzylsulfone on HFL-1 Cells Treated with Cytotoxic Drugs"}},
  "data": [
    {"compound": "O=S(=O)(/C=C/c1ccc(F)cc1Cl)Cc1ccc(Cl)cc1", "note": "[Example 9, (E)-2-chbro-4-fluorostryryl4-chlorobenzl sulfone]", "values": [
      {"measurement": "Cytoprotection", "setting": "Normal human HFL-1 cells", "value": "+"}
    ]},
    {"compound": "O=C(O)c1ccc(/C=C/S(=O)(=O)Cc2ccc(Cl)cc2)cc1", "note": "[Example 10, (E)-4-carboxystyryl-chlorobenzyl sulfone]", "values": [
      {"measurement": "Cytoprotection", "setting": "Normal human HFL-1 cells", "value": "+"}
    ]},
    {"compound": "O=C(C(=Cc1ccc(F)cc1)S(=O)(=O)c1ccccc1)c1ccccc1", "note": "[Example 12, 2-(phenylsulfonyl)-1-phenyl-3-(4-fluorophenyl)-2-propen-1-one]", "values": [
      {"measurement": "Cytoprotection", "setting": "Normal human HFL-1 cells", "value": "+"}
    ]},
    {"compound": "O=S(=O)(/C=C/c1ccc(F)cc1)Cc1ccc(Cl)cc1Cl", "note": "[Example 11, (E)-4-fluorostyryl-2,4-dichlorobenzyl sulfone]", "values": [
      {"measurement": "Cytoprotection", "setting": "Normal human HFL-1 cells", "value": "+"}
    ]},
    {"compound": "O=S(=O)(/C=C/c1ccc(Cl)cc1)Cc1ccc(Cl)cc1", "note": "[Example 8, (E)-4-chlorostyryl-4-chlorobenzyl sulfones]", "values": [
      {"measurement": "Cytoprotection", "setting": "Normal human HFL-1 cells", "value": "+"}
    ]},
    {"compound": "O=S(=O)(/C=C/c1ccc(F)cc1)Cc1ccc(Cl)cc1", "note": "[Example 7, (E)-4-fluorostyryl-4-chlorobenzyl sulfone]", "values": [
      {"measurement": "CC50 at 24 h", "setting": "[1]", "value": 70, "unit": "µM"},
      {"measurement": "Protection Ratio", "setting": "HFL-1 cells; 5-fluorouracil 20 µM (DNA antimetabolite)", "value": 1.3},
      {"measurement": "Protection Ratio", "setting": "HFL-1 cells; camptothecin 0.5 µM (topoisomerase I inhibitor)", "value": 2.1},
      {"measurement": "Protection Ratio", "setting": "HFL-1 cells; cisplatin 5.0 µM (alkylating agent)", "value": 1.3},
      {"measurement": "Protection Ratio", "setting": "HFL-1 cells; doxorubicin 0.4 µM (topoisomerase II inhibitor)", "value": 1.5},
      {"measurement": "Protection Ratio", "setting": "HFL-1 cells; etoposide 3.0 µM (topoisomerase II inhibitor)", "value": 3.5},
      {"measurement": "Protection Ratio", "setting": "HFL-1 cells; mitoxantrone 0.3 µM (topoisomerase II inhibitor)", "value": 2.0},
      {"measurement": "Protection Ratio", "setting": "HFL-1 cells; paclitaxel 0.25 µM (antimitotic)", "value": 2.5},
      {"measurement": "Protection Ratio", "setting": "HFL-1 cells; vincristine 0.25 µM (antimitotic)", "value": 3.0},
      {"measurement": "Cytoprotection", "setting": "Normal human HFL-1 cells", "value": "+"}
    ]}
  ]
}
